Reference: patent US10174068B2, “Methods of functionalization and reagents used in such methods using an aza-isatoic anhydride or a derivative thereof, biological molecules thus treated and kits” (BIOMERIEUX, priority 2012, dated 2019)

Assays:
ORN with 27 bases = experiment: Functionalization of a 27-mer ORN, degree of functionalization (Df) by HPLC after nuclease P1/alkaline phosphatase hydrolysis
Description: A comparison of the reactivity of the aza-isatoic anhydride derivative 14 relative to the reference isatoic derivative, Biot-peg4-SS-IAMe as described in WO-A-2012/076794, with respect to a 27-base model ORN (seq: 5′-AAC-CGC-AGU-GAC-ACC-CUC-AUC-AUU-ACA-3′, Eurogentec, Liege Science Park, Belgium) is carried out. For this, a fixed amount of ORN is reacted with an isatoic anhydride derivative conjugated with a molecule of interest, at 65° C. and at room temperature. The reaction is monitored by HPLC at 260 nm as was described previously in patent application WO-A-2012/076794 in example 3. This analysis makes it possible to detect the disappearance of the peak corresponding to the initial ORN and the appearance of peaks corresponding to the acylated ORN. These products have a greater retention time, and an absorption spectrum corresponding both to that of the ORN, and to that of the functionalizing reagent.
For precise evaluation of the degree of functionalization (Df), the ORN population (labelled and unlabelled) is separated from the surplus marker by precipitation with acetone/lithium perchlorate. Then the ORNs thus obtained are submitted to hydrolysis with nuclease P1 (Aldrich, Saint Louis, USA) and with alkaline phosphatase (Aldrich, Saint Louis, USA) in order to hydrolyse the phosphate diester bonds of the ORN.
LC-MS analysis of this mixture then allows several populations to be characterized and identified: • unlabelled ribonucleosides; • labelled mono-nucleoside adducts, which differ very clearly by a longer retention time, and by a UV spectrum characteristic of the nucleic acids and of the functionalizing reagent; • dinucleotides acylated at 2′ which, because of the anthranilate group substituted with the group of interest at 2′, cannot be cleaved by the nuclease P1; • per-acylated 2′OH trinucleotides or tetranucleotides, which may form theoretically but which are statistically very little represented (as this would then require two or three consecutive acylations of 2′OH), are not investigated.
The degree of functionalization of the ORN (Df) is evaluated by measuring: • the area corresponding to the terminal mononucleoside adducts (functionalized at 2′ and at 3′) and the area corresponding to the acylated dinucleotides (functionalized internally on the 2′OH) • compared to the area of the peaks corresponding to the four ribonucleosides.
In a standard experiment, the equivalent of 8 nmol of an ORN with 27 bases (5′-AAC-CGC-AGU-GAC-ACC-CUC-AUC-AUU-ACA-3′, Eurogentec, Liege Science Park, Belgium) in solution in water is first dried in a centrifugal evaporator (RCT 60, Jouan, St Herblain, France) in a 2-mL plastic Eppendorf tube. The dry residue obtained is first dissolved in 40 μL of water, then 20 μl of a buffered solution is added (in the example, a 1M triethylammonium acetate buffer solution, pH 7, Aldrich, St Louis, USA ref: 09748-100 ml). Finally, 20 μl of a solution of an isatoic anhydride derivative at 120 mM in DMSO is incorporated in the preceding solution (either the reference molecule Biot-peg4-SS-IAMe as described in FR 1060102 or the aza-isatoic derivative Biot-peg4-SS-azaIAMe (14) in this example). The mixture is incubated for 60 minutes at room temperature or at 65° C. in a stove on a rack pre-equilibrated in temperature. To remove the salts and the surplus marker, the mixture is then purified by triple precipitation in 1.2 mL of an acetone/LiClO4 180 mM 75/25 mixture. […]

[1] = system: mixture of HIV RNA transcripts and genomic calf DNA; experiment: Selective extraction of HIV RNA transcripts from a mixture with genomic DNA (functionalization/capture/cleavage/elution, Qubit quantification); settings: tag at 1.5 mM; for Final DNA/RNA ratio: after elution step 4
Description: For this, two biological models of nucleic acids were selected, HIV transcripts for RNA and genomic calf DNA. In order to compare the efficacy of the aza-isatoic derivative 14, these tests were also carried out on the reference compound Biot-peg4-SS-IAMe at 65° C. and at room temperature.
The nucleic acids used in this example are as follows: • HIV transcripts WT 1500 bases, at 1.94 μg/μL. • gDNA calf thymus, SIGMA (Saint Louis, USA), ref. D4764-5UN, at 1.92 μg/μL.
The following reagents are put in three 0.2-ml plastic tubes (Table 2 below):
In each case, the final concentrations of TEAAc and of functionalizing reagent are 250 mM and 1.5 mM respectively.
The three tubes are incubated for 1 hour at room temperature or at 65° C. on a heated rack.
Purification of the nucleic acids for each test was carried out in 5 different tubes of equivalent volume, in order to meet the optimum conditions for this step (i.e. 1 mg of magnetic silica per 2 μg of nucleic acids). Thus, each test is distributed in five 1.5-mL Eppendorf tubes i.e. 5 times 2.1 μL (2 μg of AN). 900 μL of lysis buffer (Easy Mag buffer, ref. 280134, bioMerieux, Marcy l'Etoile, France) and 50 μL of magnetic silica particles (EasyMAG silica, ref. 280133, bioMerieux, Marcy l'Etoile, France) are added to each tube. The latter are immediately stirred by the vortex effect after adding the silica, and then incubated for 10 minutes at room temperature. After magnetization on a DYNAL magnet, the supernatants are removed by aspiration with a pipette. For the next washing steps, the tubes are always stirred by the vortex effect and magnetized, followed by removal of the supernatant. A first washing is carried out with 500 μL of washing buffer 1 (Easy Mag buffer, ref. 280130, bioMerieux, Marcy l'Etoile, France). Two washings are then carried out with 900 μL and then 500 μL of washing buffer 2 (Easy Mag buffer, ref. 280131, bioMerieux, Marcy l'Etoile, France). Finally, a last washing step is carried out with 500 μL of elution buffer 3 (Easy Mag buffer, ref. 280132, bioMerieux, Marcy l'Etoile, France) at room temperature. […] The latter are analysed with the Qubit® Fluorometer instrument, ref. Q32857, Invitrogen (Carlsbad, Calif., United States of America), and using the kits Quant-iT RNA Assay Kit 5-100 ng (ref. Q32855, Invitrogen, Carlsbad, Calif., United States of America), and Quant-iT dsDNA HS Assay Kit 0.2-100 ng (ref. Q32854, Invitrogen, Carlsbad, Calif., United States of America). These analysis kits allow an RNA/DNA ratio to be determined in a mixture.
To perform this capture on magnetic particles, it is necessary to store each of the tests divided into 5 tubes in the preceding purification step. […] This supernatant is analysed as before with the Qubit® Fluorometer. […]

ODN with 27 bases = experiment: Functionalization of a 27-mer ODN (chemo-selectivity RNA versus DNA); settings: room temperature, 1 hour, reagent 30 mM, DMSO/TEAAc 250 mM pH 7 25/75
Description: 8 nmol of ODN with 27 bases, Seq: 5′-AAC-CGC-AGT-GAC-ACC-CTC-ATC-ATT-ACA-3′ (Eurogentec, Liege Science Park, Belgium) or 8 nmol of an ORN with 27 bases, Seq: 5′-AAC-CGC-AGU-GAC-ACC-CUC-AUC-AUU-ACA-3′ (Eurogentec, Liege Science Park, Belgium) is reacted with the aza-isatoic anhydride derivative (14) at 30 mM in a mixture DMSO/buffer TEAAc (250 mM pH 7) 25/75, for 1 hour at room temperature. After precipitation with acetone and hydrolysis with nuclease P1 and alkaline phosphatase, the hydrolysed fragments are analysed by LC-MS, as described in example 3. An example of chromatograms for monitoring the reaction of the ODN or of the ORN with compound 14 is shown in FIG. 6, where traces A, B and C correspond respectively to the initial ORN, the ORN functionalized with compound 14 and precipitated, and the ORN functionalized with 14, precipitated and hydrolysed. Traces D, E and F represent the same results obtained with the ODN.

[2] = 65° C., 60 minutes, TEAAc pH 7, reagent 120 mM in DMSO diluted in the mixture
[3] = room temperature, 1 hour, TEAAc pH 7, reagent 30 mM

Compound	uncorrected degree of functionalization (Df) of the ORN (ORN with 27 bases; [2])	uncorrected degree of functionalization (Df) of the ORN (ORN with 27 bases; [3])	S* (intermediate selectivity index) ([1]; functionalization at 65° C.)	Final DNA/RNA ratio ([1]; functionalization at 65° C.)	melting point	factor of increase of reactivity with respect to an oligoribonucleotide relative to the reference compound (ORN with 27 bases; 65° C.)	S* (intermediate selectivity index) ([1]; functionalization at Rt)	Final DNA/RNA ratio ([1]; functionalization at Rt)	uncorrected degree of functionalization of the ODN (ODN with 27 bases)
O=C(CCCCC1SCC2NC(=O)NC21)NCCOCCOCCOCCC(=O)NCCSSCCC(=O)Nc1cccc2[nH]c(=O)oc(=O)c12 (centres unmarked) [Biot-peg4-SS-IAMe, reference compound]	7.5%	1%	6	14/86	–	–	–	–	–
Cn1c(=O)oc(=O)c2cc(CCC(=O)NCCSSCCNC(=O)CCCCC3SCC4NC(=O)NC43)cnc21 (centres unmarked) [Compound 12, 5-[(3AS,6AR)-2-OXO-HEXAHYDRO-1H-THIENO[3,4-D]IMIDAZOLIDIN-4-YL]-N-(2-{[2-(3-{1-METHYL-2,4-DIOXO-1H,2H,4H-PYRIDO[2,3-D][1,3]OXAZIN-6-YL}PROPANAMIDO)ETHYL]DISULPHANYL}ETHYL)PENTANAMIDE]	–	–	–	–	125 °C	–	–	–	–
Cn1c(=O)oc(=O)c2cc(CCC(=O)NCCSSCCNC(=O)CCOCCOCCOCCOCCNC(=O)CCCCC3SCC4NC(=O)NC43)cnc21 [Compound 14, 1-{5-[(3aS,6aR)-2-oxo-hexahydro-1H-thieno[3,4-d]imidazolidin-4-yl]pentanamido}-N-(2-{[2-(3-{1-methyl-2,4-dioxo-1H,2H,4H-pyrido[2,3-d][1,3]oxazin-6-yl}propanamido)ethyl]disulphanyl}ethyl)-3,6,9,12-tetraoxapentadecan-15-amide]	13.5%	7.8%	–	–	–	1.8	30	4/96	0.5%
